{"source": "patent US20090117170A1", "about": "“SEGMENTED DEVICE FOR THE DELAYED RELEASE OF MOLECULES IN A TANGENTIAL DIRECTION THROUGH THIN FILMS AND USES THEREOF” (CAPSULUTION NANOSCIENCE AG, priority 2004, published 2009)", "key": {"[1]": {"experiment": "enalaprilate release from segmented silicon disc release apparatus", "format": "physicochemical", "source_text": "A release apparatus was produced from round silicon discs (outer diameter 14.0 mm, thickness 0.525 mm) having a very low surface roughness. The release apparatus consisted of 15 discs having a core drilling (diameter=8 mm), a silicon disc without a core drilling as a cover plate and a base plate having closable openings for filling. A silicon disc having a core drilling was glued onto the base plate of titanium. The release apparatus was assembled underwater and fixed by means of a holder. Subsequently, the reservoir was emptied through the reclosable openings in the base plate before the release apparatus was filled with an enalaprilate suspension.\nAs in Example 3, a release apparatus was produced from round silicon discs (outer diameter 14.0 mm, thickness 0.525 mm), the silicon discs being coated with polyelectrolyte multilayers. Before the assembly of the release apparatus, the silicon discs were coated with a 16 PAH/PSS layer.\nAs in Example 4, a release apparatus was produced from round coated silicon discs (outer diameter 14.0 mm, thickness 0.525 mm), 25 discs having a core drilling being used."}, "[2]": {"experiment": "ibuprofen release from segmented glass release apparatus in phosphate saline buffer", "format": "physicochemical", "conditions": "10 intersegment films, 37° C., phosphate saline buffer pH 7.4 with sodium azide", "description": "A release apparatus was produced from glass discs 3 to 11 (soda-lime glass, edge lengths 26.0×26.0 mm, disc thickness of 1.0 mm) having a surface roughness of 0.172-1.39 Ra (see FIGS. 7A and 7B). The release apparatus consisted of 9 discs (26.0×26.0 mm) having a core drilling 13 (diameter=8 mm) and was closed off on both sides by two discs without a core drilling. Separate intersegment films were not used. A reservoir volume of theoretically 452.4 μl results in the case of 9 discs having a core drilling and a disc thickness of 1.0 mm. The release apparatus was filled with a model substance before closing (100 mg of crystalline ibuprofen) and the remaining reservoir volume was subsequently filled with release medium. Following this, the release behavior of the model substance was investigated at 37° C. in phosphate saline buffer pH 7.4 with addition of sodium azide. FIGS. 7C and 7D show the ibuprofen release from the segmented glass apparatus having 10 intersegment films in phosphate saline buffer pH 7.4 with addition of sodium azide. […] A release apparatus consisting of glass discs (soda-lime glass, edge lengths 26.0×26.0 mm, disc thickness of 1.0 mm) having a surface roughness of 0.172-1.39 Ra was produced (see FIGS. 7A and 7B), the discs being modified by a separating film covering only the outer edges of the discs such that an intersegment film thickness (hollow space) of about 50 μm was present. The release apparatus consisted of 9 discs 3 to 11 (26.0×26.0 mm) having a core drilling 13 (diameter=8 mm) and was closed off on both sides by two discs without a core drilling. Before closing, the release apparatus was filled with a model substance (100 mg of crystalline ibuprofen) and the remaining reservoir volume was subsequently filled with release medium. Following this, the release behavior of the model substance was investigated at 37° C. in phosphate saline buffer pH 7.4 with addition of sodium azide. […]"}}, "data": [{"smiles": "C[C@H](N[C@@H](CCc1ccccc1)C(=O)O)C(=O)N1CCC[C@H]1C(=O)O", "note": "[enalaprilate]", "values": [{"measurement": "release rate", "setting": "[1]; Example 3: uncoated silicon discs, 15 intersegment films, enalaprilate suspension", "value": "about 150 μg per day"}, {"measurement": "release rate", "setting": "[1]; Example 4: silicon discs coated with 16 PAH/PSS layer, 15 modified intersegment films", "value": "about 75 μg per day"}, {"measurement": "release rate", "setting": "[1]; Example 5: coated silicon discs, 25 modified intersegment films", "value": "about 140 μg per day"}]}, {"smiles": "CC(C)Cc1ccc(C(C)C(=O)O)cc1", "note": "(stereo not drawn) [ibuprofen]", "values": [{"measurement": "release rate of the model substance (constant release behavior)", "setting": "[2]; Example 1: glass apparatus, no separate films, 100 mg crystalline ibuprofen", "value": "about 65 μg/d"}, {"measurement": "duration of constant release behavior", "setting": "[2]; Example 1: glass apparatus, no separate films", "value": "more than 100 days"}, {"measurement": "release rate of the model substance", "setting": "[2]; Example 2: glass apparatus, modified film thickness (hollow space) about 50 μm, 100 mg crystalline ibuprofen, for 10 to 100 days", "value": "about 0.6 mg/d"}]}]}
